Calls of active or inactive are those of the source.
How the values were obtained:
Mu-type opioid receptor = Mu-type opioid receptor (Homo sapiens, UniProt P35372); experiment: (§1) Counterscreen for agonists of heterodimerization of the mu 1 (OPRM1) and delta 1 (OPRD1) opioid receptors: Luminescence-based cell-based high throughput dose response assay to identify agonists of OPRM1 homodimerization.; format: functional
[1] = target: Delta-type opioid receptor (Homo sapiens, UniProt P41143); experiment: as §1, with “of OPRD1” for “of OPRM1”, “homodimerization. [Related pubchem assays (depositor defined):AID504326, AID504355, AID504692, AID504904, AID504905]” for “homodimerization.”; format: functional
[2] = target: T1, Short transient receptor potential channel 4 (Mus musculus, UniProt Q9QUQ5); experiment: mouse TRPC4 channel activators, dose response, cell-based, HEK293 TRPC4/mu-opioid, Fluo-4 calcium (AID 434937); format: functional
T1 sequence (Q9QUQ5 whole entry): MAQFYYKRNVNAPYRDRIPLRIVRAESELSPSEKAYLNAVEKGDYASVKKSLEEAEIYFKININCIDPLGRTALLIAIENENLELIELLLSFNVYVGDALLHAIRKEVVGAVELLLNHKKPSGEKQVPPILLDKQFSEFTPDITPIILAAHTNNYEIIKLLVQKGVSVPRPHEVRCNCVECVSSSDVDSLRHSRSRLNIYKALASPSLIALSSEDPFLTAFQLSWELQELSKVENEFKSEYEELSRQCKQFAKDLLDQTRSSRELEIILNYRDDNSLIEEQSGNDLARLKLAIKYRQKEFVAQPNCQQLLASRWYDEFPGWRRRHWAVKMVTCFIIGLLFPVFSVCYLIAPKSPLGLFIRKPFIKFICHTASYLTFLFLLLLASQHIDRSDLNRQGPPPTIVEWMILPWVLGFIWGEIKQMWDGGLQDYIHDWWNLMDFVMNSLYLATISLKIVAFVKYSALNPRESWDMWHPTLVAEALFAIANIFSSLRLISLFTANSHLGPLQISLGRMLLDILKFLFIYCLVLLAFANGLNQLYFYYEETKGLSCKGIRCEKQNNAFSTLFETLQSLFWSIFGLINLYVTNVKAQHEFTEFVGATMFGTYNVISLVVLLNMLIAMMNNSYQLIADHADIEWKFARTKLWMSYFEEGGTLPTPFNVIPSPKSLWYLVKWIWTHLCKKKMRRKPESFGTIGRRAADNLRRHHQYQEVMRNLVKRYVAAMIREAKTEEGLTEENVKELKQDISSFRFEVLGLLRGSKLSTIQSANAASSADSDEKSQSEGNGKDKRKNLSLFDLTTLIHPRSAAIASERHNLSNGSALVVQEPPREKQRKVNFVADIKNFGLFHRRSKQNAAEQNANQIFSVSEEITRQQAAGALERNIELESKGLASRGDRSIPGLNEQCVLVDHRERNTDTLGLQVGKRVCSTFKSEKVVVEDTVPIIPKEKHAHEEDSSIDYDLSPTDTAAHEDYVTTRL

[3] = target: 5-hydroxytryptamine receptor 5A (Homo sapiens, UniProt P47898); experiment: Counterscreen for agonists of OPRM1-OPRD1 heterodimerization: luminescence-based cell-based high throughput dose response assay to identify agonists of 5-hydroxytryptamine (serotonin) 5A receptor (HTR5A). [Related pubchem assays (depositor defined):AID504326, AID504355, AID504692, AID504904, AID504905]; format: functional
[4] = target: T2, Nuclear receptor subfamily 0 group B member 1 (Homo sapiens, UniProt P51843); experiment: Luminescence-based cell-based high throughput dose response assay for inhibitors of the orphan nuclear receptor subfamily 0, group B, member 1 (DAX1; NR0B1). [Related pubchem assays (depositor defined):AID504766, AID504790]; format: functional
T2 sequence (P51843 whole entry): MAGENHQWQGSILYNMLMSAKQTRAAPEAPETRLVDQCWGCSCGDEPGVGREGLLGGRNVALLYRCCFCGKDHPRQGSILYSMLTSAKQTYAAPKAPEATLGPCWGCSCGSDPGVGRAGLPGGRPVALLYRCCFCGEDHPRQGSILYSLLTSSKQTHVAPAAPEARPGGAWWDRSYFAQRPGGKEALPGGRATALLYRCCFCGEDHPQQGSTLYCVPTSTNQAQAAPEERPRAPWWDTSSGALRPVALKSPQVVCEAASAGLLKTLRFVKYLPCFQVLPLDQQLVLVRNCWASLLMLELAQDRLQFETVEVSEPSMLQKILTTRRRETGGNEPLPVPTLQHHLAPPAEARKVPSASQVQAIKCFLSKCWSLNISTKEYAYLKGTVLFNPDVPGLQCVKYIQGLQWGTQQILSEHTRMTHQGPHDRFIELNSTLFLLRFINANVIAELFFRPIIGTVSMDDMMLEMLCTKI

HEK293 = experiment: cells; format: functional, cell-based; details: Homo sapiens
Vero [5] = experiment: cells; format: functional, cell-based; details: Chlorocebus sabaeus
Vero [6] = experiment: cells; format: functional; details: Chlorocebus sabaeus
Escherichia coli = experiment: microbe, parasite or virus in culture
CAAX prenyl protease 2 [7] = target: CAAX prenyl protease 2 (Homo sapiens, UniProt Q9Y256); experiment: human Rce1 protease inhibitors, dose response, biochemical, yeast membranes, quenched-peptide fluorescence, cherry-pick (AID 588849)
CAAX prenyl protease 1 = CAAX prenyl protease 1 (Saccharomyces cerevisiae S288c, UniProt P47154); experiment: Ste24 protease inhibitors, dose response, biochemical, S. cerevisiae, plate reader, cherry-pick (AID 488815)
[8] = target: FAD-linked sulfhydryl oxidase ALR (Homo sapiens, UniProt P55789); experiment: inhibitors of human ALR sulfhydryl oxidase, dose response, biochemical, H2O2 detection, luminescence, cherry-pick (AID 493248)
CAAX prenyl protease 2 [9] = target: T3, CAAX prenyl protease 2 (Saccharomyces cerevisiae S288c, UniProt Q03530); format: biochemical
T3 sequence (Q03530 whole entry): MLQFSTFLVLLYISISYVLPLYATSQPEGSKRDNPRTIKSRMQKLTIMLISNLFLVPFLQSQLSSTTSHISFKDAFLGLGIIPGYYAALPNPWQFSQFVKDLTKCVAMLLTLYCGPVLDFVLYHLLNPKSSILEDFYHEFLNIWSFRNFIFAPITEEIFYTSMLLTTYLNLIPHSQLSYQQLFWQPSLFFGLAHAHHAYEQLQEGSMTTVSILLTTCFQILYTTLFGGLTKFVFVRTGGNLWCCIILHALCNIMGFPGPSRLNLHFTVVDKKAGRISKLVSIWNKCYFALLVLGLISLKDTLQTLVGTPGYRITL

[10] = Luminescence Cell-Based Dose Retest to Confirm Inhibitors of Cancer Stem Cells. [Related pubchem assays (depositor defined):AID2717, AID2721]; format: functional; details: Homo sapiens
[11] = inhibitors of firefly luciferase expression or activity, dose response, H4 neuroglioma cells, luminescence (AID 1990); format: functional, cell-based
[12] = inhibitors of SNCA 5'UTR-driven reporter translation, confirmation, H4 neuroglioma cells, luminescence (AID 1988); format: functional, cell-based
[13] = Luminescence Cell-Based Dose Response HTS to Identify Inhibitors of 5'UTR Stem-Loop Driven Prion Protein mRNA Translation in H4 Neuroglioblastoma Cells. [Related pubchem assays: 1827 (Project Summary), 1813 (Primary HTS)]; format: functional

Chain of CAAX prenyl protease 2 (Homo sapiens, UniProt Q9Y256) (Q9Y256 whole entry): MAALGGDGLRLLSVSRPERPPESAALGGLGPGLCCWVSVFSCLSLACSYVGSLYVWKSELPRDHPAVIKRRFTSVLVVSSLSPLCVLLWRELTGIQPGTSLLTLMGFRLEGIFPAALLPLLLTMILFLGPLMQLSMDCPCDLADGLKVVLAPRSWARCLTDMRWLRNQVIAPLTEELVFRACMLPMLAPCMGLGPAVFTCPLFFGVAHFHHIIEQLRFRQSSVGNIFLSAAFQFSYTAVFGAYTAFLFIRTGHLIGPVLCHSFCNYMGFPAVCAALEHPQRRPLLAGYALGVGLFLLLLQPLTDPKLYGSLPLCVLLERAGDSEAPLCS
Chain of Delta-type opioid receptor (P41143 whole entry): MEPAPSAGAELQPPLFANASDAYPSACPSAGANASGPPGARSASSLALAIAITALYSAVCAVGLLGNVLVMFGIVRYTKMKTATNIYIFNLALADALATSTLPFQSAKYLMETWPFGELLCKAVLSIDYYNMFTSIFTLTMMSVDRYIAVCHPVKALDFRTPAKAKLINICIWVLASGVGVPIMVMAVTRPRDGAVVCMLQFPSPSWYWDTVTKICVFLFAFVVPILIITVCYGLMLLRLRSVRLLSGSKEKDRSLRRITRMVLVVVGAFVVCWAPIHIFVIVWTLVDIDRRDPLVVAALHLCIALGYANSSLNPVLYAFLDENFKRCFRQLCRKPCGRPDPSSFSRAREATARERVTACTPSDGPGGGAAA
Chain of Mu-type opioid receptor (P35372 whole entry): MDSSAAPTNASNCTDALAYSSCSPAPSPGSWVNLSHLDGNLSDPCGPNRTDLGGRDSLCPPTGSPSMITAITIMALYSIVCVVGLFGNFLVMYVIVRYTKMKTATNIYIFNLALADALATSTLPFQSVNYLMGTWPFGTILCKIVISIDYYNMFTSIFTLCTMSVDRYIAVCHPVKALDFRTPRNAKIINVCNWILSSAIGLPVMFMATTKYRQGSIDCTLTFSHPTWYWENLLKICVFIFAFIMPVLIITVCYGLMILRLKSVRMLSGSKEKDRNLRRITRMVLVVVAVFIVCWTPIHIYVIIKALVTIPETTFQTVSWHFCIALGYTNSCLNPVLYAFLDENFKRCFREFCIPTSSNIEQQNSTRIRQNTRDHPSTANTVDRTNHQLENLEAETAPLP
Chain of CAAX prenyl protease 1 (P47154 whole entry): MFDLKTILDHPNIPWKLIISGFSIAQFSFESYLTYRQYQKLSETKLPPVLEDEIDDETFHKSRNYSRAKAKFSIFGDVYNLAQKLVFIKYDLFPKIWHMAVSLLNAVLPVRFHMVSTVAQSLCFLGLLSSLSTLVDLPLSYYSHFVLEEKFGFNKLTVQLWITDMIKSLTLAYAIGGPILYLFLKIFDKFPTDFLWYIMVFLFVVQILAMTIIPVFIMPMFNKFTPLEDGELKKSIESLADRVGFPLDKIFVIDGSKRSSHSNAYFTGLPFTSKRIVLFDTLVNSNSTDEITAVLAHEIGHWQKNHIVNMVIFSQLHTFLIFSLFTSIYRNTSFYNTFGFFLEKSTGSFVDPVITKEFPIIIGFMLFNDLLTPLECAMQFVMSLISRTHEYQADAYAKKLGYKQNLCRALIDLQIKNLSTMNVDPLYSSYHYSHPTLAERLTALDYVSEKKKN
Chain of 5-hydroxytryptamine receptor 5A (P47898 whole entry): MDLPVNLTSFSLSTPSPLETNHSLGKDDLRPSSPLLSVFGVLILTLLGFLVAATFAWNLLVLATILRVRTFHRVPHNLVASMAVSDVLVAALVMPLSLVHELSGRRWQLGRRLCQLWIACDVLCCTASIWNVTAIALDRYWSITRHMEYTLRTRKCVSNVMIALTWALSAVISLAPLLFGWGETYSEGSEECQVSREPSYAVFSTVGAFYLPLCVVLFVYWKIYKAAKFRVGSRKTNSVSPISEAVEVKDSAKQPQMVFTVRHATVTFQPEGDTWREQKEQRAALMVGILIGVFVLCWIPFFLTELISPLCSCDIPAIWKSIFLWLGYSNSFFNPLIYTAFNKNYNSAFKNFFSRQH
Chain of FAD-linked sulfhydryl oxidase ALR (P55789 whole entry): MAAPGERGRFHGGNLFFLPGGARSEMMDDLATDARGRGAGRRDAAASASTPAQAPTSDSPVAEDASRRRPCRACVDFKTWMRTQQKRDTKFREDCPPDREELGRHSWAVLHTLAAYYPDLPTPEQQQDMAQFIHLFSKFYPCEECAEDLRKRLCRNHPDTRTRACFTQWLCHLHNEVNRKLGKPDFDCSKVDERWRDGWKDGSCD

For COCC1CCN(Cc2cn(-c3ccccc3F)nc2-c2cc(C)sc2C)CC1, which EC50 (Mu-type opioid receptor) is on record?
Its EC50 is > 92.5 µM (inactive).

What about the EC50 [1] of the same compound?
The EC50 was > 92.5 µM (inactive).

What about the EC50 [2] of the same compound?
Its EC50 is 1.88 µM (active).

What about the EC50 [3] of the same compound?
The EC50 was > 92.5 µM (inactive).

Which IC50 [4] does the source give for Clc1ccccc1Nc1nc(-c2cccnc2)cs1 here?
Its IC50 is > 67.5 µM (inactive).

What about the IC50 (HEK293) of the same compound?
The IC50 was > 67.5 µM (inactive).

With Cc1ccc(-c2nnn3c2nc(Cl)c2ccccc23)cc1 as the compound, how does the IC50 (Vero [5]) read?
The IC50 was > 25 µM (active).

And the CC50 (Vero [6])?
Its CC50 is 18.4 µM (active).

Which AC50 (Escherichia coli) does the source give for O=C1CN2C(=Nc3ccc(Br)cc3C2c2ccccc2)CCN1 (centres undefined) here?
The AC50 was 81.5 µM (active).

For COc1ccc(/C=N/NC(=O)c2[nH]c3ccc(C)cc3c2-c2ccccc2)c(C(=O)O)c1OC, which AC50 (CAAX prenyl protease 2 [7]) is on record?
Its AC50 is 3.14 µM (active).

What about the AC50 (CAAX prenyl protease 1) of the same compound?
The AC50 was 1.76 µM (active).

And the AC50 [8]?
Its AC50 is 3.71 µM (active).

What about the AC50 (CAAX prenyl protease 2 [9]) of the same compound?
Its AC50 is 5.21 µM (active).

With Cc1cccc(N/N=C(\C(N)=O)C2=NC(C)(C)Cc3ccccc32)c1 as the compound, how does the AC50 [10] read?
Its AC50 is 9.41 µM (active).

And the IC50 (Vero [5])?
Its IC50 is > 25 µM (active).

And the EC50 [11]?
Its EC50 is 3.43 µM (active).

And the CC50 (Vero [6])?
The CC50 was > 25 µM (active).

What about the EC50 [12] of the same compound?
The EC50 was 20.2 µM (active).

What about the EC50 [13] of the same compound?
The EC50 was 13.1 µM (active).
